In test [1] the target is T1, Ba/F3 SLC34A2-ROS1-WT (Homo sapiens, UniProt P08922).
T1 construct: fused on or other part: N-terminal part of SLC34A2 as fusion partner (part of the key); O95436 (Sodium-dependent phosphate transport protein 2B)
Description: Inhibitory activity against cell proliferation (CellTiter-Glo, 72 hours). It counts as cell-based. The settings on record: read-out: Half maximal inhibitory concentration IC50 of cells, Ba/F3 SLC34A2-ROS1-WT. On the procedure: (§1) Adenosine Triphosphate (ATP) is an energy carrier commonly used in various life activities in nature, and is the minimum unit for energy storage and transfer. The CellTiter-Glo™ cell viability assay kit uses luciferase as an assay agent, which requires the involvement of ATP in luminescence. The CellTiter-Glo™ reagent is added into cell culture medium to measure the luminescence value. The luminescence signal is directly proportional to the amount of ATP in the system, and the ATP is positively correlated with the number of viable cells. Therefore, the proliferation of cells can be detected by detecting the ATP content using the CellTiter-Glo kit.
(§2) a) Cells in the logarithmic growth phase were collected and counted using a […]. The cell viability was detected by the trypan blue exclusion method, and the cell viability was kept over 90%.
(§3) b) The cell concentration was adjusted; 90 μL of the cell suspension was added to a 96-well plate.
(§4) a) A 10-fold compound solution was prepared, with the highest concentration being 10 μM (a total of 9 concentrations, 3-fold dilution). 10 μL of compound solution was added to each well of a 96-well plate inoculated with cells, and three duplicate wells were set for each compound concentration.
(§5) a) The CTG reagent was thawed and the cell plate was equilibrated to room temperature for 30 minutes.
(§6) b) An equal volume of CTG solution was added to each well.
(§7) c) The plate was shaken on an orbital shaker for 5 minutes to lyse the cells.
(§8) d) The cell plate was placed at room temperature for 20 minutes to stabilize the luminescence signal.
(§9) e) The luminescence value was read.
(§10) The data were analyzed using GraphPad Prism 5.0 software, fitted with nonlinear S-curve regression to give dose-response curves, and IC50 values were calculated therefrom.
(In general: In ATP-based viability assays light output follows the ATP content of the culture.)

In test [2] the target is T2, Ba/F3 LMNA-NTRK1-WT (Homo sapiens, UniProt P04629).
T2 construct: fused on or other part: N-terminal part of LMNA as fusion partner (part of the key); P02545 (Prelamin-A/C)
T2 sequence (P04629 whole entry, change not shown, the tested form may be a part): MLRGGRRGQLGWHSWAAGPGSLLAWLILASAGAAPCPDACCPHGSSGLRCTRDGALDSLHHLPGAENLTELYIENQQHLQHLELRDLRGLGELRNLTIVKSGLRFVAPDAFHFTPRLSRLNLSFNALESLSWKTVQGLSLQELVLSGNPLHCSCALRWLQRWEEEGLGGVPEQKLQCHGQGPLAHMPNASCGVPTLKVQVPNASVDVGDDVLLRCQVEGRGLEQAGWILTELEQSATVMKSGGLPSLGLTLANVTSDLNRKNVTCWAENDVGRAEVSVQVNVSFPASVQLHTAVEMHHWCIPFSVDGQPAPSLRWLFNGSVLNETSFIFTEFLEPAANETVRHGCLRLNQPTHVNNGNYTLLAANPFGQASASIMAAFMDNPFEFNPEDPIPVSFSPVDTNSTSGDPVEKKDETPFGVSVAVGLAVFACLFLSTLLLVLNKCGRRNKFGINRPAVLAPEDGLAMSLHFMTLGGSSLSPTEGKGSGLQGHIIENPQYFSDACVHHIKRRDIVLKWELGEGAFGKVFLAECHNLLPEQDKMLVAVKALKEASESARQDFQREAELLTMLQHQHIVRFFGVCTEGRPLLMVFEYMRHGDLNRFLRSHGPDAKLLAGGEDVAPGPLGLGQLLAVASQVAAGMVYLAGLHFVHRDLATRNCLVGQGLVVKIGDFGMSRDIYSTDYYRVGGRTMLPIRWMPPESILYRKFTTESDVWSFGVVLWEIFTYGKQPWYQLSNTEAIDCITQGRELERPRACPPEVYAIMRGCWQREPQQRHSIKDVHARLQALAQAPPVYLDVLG
The description is as above. It counts as cell-based. Conditions: read-out: Half maximal inhibitory concentration IC50 of cells, Ba/F3 LMNA-NTRK1-WT. The protocol:
as §1, §2, §3, §4, §5, §6, §7, §8, §9, §10

Test [3] concerns the target T3, BaF3 LMNA-NTRK1-G595R (Homo sapiens, UniProt P04629, G595R, cells depend on it).
T3 construct: fused on or other part: N-terminal part of LMNA as fusion partner (part of the key); P02545 (Prelamin-A/C)
The test is described as above. The settings on record: read-out: Half maximal inhibitory concentration IC50 of cells, BaF3 LMNA-NTRK1-G595R. In kind it is cell-based. On the procedure: as §1, §2, §3, §4, §5, §6, §7, §8, §9, §10

In test [4] the target is T4, TrkA (Homo sapiens, UniProt P04629).
T4 construct: purchased Reaction Biology Corp
T4 sequence (P04629 33-796): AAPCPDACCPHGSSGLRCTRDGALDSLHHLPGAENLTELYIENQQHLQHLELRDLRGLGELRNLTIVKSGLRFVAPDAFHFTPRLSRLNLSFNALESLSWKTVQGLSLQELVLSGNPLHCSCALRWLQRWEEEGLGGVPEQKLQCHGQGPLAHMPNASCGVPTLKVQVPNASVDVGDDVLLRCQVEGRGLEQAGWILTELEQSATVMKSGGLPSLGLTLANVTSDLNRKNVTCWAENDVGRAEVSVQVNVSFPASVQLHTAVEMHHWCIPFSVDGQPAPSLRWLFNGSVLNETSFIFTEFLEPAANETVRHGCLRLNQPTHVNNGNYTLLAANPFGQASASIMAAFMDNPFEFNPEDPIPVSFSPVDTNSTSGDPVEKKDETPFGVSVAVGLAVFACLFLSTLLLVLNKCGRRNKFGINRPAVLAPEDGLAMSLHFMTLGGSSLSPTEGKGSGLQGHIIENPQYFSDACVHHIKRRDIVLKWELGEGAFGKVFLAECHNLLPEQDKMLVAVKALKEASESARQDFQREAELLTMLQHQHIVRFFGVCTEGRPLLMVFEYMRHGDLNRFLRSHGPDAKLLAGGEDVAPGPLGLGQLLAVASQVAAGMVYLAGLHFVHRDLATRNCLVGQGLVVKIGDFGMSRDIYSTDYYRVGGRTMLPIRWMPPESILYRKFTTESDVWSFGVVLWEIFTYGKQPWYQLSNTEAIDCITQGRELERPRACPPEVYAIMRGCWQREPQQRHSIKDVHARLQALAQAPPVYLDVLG
As to the kind of experiment: Kinase inhibitory activity (33P-ATP, filtration-binding method, Reaction Biology Corp.). In kind it is biochemical. The settings on record: read-out: Half maximal inhibitory concentration IC50 for kinases, TrkA. The protocol:
(§11) The mixture was incubated at room temperature for 20 minutes, added with ^33P-ATP at a certain concentration to start the reaction, and then incubated at room temperature for 120 minutes. Finally, the radioactivity of the reactant was detected by the filtration-binding method. The final kinase activity was expressed as the ratio of the remaining kinase activity in the test sample to the kinase activity of the DMSO control. The dose-response curves were fitted and IC50 values were calculated by GraphPad software.

The target in test [5] is T5, TrkC (Homo sapiens, UniProt Q16288).
T5 construct: purchased Reaction Biology Corp
T5 sequence (Q16288 32-839): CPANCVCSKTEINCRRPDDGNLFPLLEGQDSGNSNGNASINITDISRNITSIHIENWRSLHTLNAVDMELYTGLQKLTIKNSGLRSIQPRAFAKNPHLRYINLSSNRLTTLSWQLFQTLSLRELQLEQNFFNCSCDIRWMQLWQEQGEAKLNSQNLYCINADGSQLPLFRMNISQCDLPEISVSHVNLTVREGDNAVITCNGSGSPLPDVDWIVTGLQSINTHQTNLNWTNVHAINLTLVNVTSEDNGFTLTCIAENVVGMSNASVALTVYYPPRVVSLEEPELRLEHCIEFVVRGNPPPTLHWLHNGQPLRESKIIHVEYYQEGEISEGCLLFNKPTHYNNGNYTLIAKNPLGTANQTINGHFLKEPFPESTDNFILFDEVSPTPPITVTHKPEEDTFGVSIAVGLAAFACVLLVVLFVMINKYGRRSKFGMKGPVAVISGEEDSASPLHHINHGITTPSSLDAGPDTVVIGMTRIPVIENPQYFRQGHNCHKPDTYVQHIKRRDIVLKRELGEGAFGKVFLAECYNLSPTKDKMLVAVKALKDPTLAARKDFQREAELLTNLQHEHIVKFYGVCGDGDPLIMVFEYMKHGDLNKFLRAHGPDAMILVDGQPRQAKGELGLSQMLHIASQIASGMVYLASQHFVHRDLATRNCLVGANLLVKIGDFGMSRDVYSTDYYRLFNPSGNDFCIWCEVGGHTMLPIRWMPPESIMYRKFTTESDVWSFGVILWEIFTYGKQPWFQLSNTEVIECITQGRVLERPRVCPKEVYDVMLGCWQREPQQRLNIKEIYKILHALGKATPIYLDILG
The test is described as above. It counts as biochemical. Conditions: read-out: Half maximal inhibitory concentration IC50 for kinases, TrkC. On the procedure: as §11

Test [6] addresses T6, Ros1 (Homo sapiens, UniProt P08922).
T6 construct: purchased Reaction Biology Corp
The description is as above. The settings on record: read-out: Half maximal inhibitory concentration IC50 for kinases, Ros1. It counts as biochemical. On the procedure: as §11

Test [7] addresses T7, ALK (Homo sapiens, UniProt Q9UM73).
T7 construct: purchased Reaction Biology Corp
Described as above. Conditions: read-out: Half maximal inhibitory concentration IC50 for kinases, ALK. It counts as biochemical. The protocol:
as §11

The target in test [8] is T8, TrkA-G595R (Homo sapiens, UniProt P04629, G595R).
T8 construct: purchased Reaction Biology Corp
T8 sequence (P04629 33-796 G595R): as the sequence (P04629 33-796) above, with G563R counted along it
The test is described as above. It counts as biochemical. The settings on record: read-out: Half maximal inhibitory concentration IC50 for kinases, TrkA-G595R. On the procedure:
as §11

The target in test [9] is T9, TrkA-G667C (Homo sapiens, UniProt P04629, G667C).
T9 construct: purchased Reaction Biology Corp
T9 sequence (P04629 33-796 G667C): as the sequence (P04629 33-796) above, with G635C counted along it
The test is described as above. It counts as biochemical. The settings on record: read-out: Half maximal inhibitory concentration IC50 for kinases, TrkA-G667C. The protocol:
as §11

The target in test [10] is T10, BaF3 ETV6-NTRK3-G623R (Homo sapiens, UniProt Q16288, G623R, cells depend on it).
T10 construct: fused on or other part: N-terminal part of ETV6 (TEL) as fusion partner (part of the key); P41212 (Transcription factor ETV6)
T10 sequence (Q16288 whole entry G623R, the tested form may be a part): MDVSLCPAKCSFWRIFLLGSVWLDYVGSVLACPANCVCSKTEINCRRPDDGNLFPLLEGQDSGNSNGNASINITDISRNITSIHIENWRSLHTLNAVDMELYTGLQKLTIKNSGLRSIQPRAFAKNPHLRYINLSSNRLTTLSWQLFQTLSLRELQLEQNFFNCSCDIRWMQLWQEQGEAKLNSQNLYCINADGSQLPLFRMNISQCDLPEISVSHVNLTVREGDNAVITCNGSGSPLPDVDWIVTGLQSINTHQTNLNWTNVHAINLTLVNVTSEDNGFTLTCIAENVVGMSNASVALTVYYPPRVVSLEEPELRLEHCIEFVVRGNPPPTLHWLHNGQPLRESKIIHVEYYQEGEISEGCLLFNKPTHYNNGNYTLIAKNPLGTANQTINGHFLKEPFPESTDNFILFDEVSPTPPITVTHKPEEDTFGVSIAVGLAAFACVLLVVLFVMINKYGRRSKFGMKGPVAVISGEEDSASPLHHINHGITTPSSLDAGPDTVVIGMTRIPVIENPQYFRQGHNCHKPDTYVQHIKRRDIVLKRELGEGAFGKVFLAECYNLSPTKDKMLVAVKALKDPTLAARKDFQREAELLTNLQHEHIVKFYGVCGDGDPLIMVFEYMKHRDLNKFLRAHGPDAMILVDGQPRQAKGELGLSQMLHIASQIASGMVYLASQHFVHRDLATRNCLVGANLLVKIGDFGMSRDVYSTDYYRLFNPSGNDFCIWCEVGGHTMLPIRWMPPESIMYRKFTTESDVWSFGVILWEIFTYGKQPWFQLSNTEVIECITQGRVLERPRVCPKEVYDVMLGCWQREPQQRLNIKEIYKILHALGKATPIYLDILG
As to the kind of experiment: Inhibitory activity against cell proliferation (CellTiter-Glo, 72 hours). In kind it is cell-based. The settings on record: read-out: Half maximal inhibitory concentration IC50 of cells, BaF3 ETV6-NTRK3-G623R. The protocol:
as §1, with “kit. In this test, the cell lines used are Ba/F3 LMNA-NTRK1-WT, Ba/F3 LMNA-NTRK1-F589L, BaF3 LMNA-NTRK1-G595R, BaF3 LMNA-NTRK1-G667A, BaF3 ETV6-NTRK3-WT, BaF3 ETV6-NTRK3-G623R, and Ba/F3 SLC34A2-ROS1-WT stable cell strains, 5000 cells/well.” for “kit.”
as §2, §3
c) Cells in the 96-well plate were incubated overnight at 37° C. with 5% CO2 and 95% humidity.
as §4
b) The cells in the 96-well plate added with compound were incubated for 72 hours at 37° C. with 5% CO2 and 95% humidity, followed by the CTG (CellTiter-Glo) analysis.
as §5, §6, §7, §8, §9, §10

Results on five compounds are retold here after patent US20210403485A1, “PYRAZOLOPYRIMIDINE DERIVATIVE AS SELECTIVE TRK INHIBITOR” (SHANDONG LUYE PHARMACEUTICAL CO., LTD., priority 2018, published 2021).

T7 sequence (Q9UM73 19-1620): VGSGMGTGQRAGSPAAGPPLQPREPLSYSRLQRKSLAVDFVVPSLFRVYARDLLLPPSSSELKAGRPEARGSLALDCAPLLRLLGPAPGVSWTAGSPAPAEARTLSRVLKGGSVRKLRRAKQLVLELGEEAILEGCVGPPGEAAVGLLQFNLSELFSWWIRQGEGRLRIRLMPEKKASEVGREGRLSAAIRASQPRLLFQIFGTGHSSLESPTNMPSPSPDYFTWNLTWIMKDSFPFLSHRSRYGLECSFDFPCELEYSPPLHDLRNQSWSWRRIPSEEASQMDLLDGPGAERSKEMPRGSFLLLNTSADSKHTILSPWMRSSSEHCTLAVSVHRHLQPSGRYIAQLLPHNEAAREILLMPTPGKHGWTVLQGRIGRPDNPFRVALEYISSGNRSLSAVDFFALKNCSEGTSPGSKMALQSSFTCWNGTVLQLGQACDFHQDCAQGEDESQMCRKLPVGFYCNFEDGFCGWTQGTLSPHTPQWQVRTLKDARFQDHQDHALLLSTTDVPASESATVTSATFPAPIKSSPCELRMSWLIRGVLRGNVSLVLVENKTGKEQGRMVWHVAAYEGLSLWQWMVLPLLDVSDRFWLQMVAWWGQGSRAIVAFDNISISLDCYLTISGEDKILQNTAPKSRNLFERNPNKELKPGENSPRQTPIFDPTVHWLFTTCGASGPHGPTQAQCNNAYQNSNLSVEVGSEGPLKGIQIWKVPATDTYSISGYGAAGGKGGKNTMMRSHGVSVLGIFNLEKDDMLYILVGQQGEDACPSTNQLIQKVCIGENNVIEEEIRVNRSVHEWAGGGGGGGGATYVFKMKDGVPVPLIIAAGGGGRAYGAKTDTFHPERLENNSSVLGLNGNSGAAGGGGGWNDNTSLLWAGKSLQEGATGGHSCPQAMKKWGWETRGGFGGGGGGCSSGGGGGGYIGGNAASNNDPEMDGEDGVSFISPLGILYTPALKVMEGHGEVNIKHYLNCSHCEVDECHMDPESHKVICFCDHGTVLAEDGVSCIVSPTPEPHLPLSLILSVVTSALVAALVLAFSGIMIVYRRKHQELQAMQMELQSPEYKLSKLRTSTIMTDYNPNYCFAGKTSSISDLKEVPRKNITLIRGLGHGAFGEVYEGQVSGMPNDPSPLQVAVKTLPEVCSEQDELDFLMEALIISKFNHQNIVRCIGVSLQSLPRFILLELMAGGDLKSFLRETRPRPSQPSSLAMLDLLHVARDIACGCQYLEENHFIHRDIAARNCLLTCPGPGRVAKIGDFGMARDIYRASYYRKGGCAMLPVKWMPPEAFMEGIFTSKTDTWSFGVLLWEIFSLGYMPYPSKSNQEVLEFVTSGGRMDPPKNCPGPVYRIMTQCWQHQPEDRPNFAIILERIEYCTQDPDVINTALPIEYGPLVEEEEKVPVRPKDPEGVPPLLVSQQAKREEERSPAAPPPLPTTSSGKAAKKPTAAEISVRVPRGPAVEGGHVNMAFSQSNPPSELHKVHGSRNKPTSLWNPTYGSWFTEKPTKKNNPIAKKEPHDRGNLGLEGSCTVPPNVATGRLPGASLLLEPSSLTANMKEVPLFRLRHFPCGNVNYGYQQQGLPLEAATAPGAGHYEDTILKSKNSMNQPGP
T3 sequence (P04629 whole entry G595R, the tested form may be a part): as the sequence (P04629 whole entry, change not shown, the tested form may be a part) above, with G595R counted along it

As to `O=C1NC2(CC2)COc2ccc(F)cc2C2CCCCN2c2ccn3ncc1c3n2` (single isomer, unassigned) [WX002A], the GI50 in [1] was 12.6 nM; in test [2], 0.2 nM; in test [3], 0.4 nM; in test [10], 5.8 nM. For the same compound, the IC50 came out at 3.2 nM in [4]; 0.2 nM in test [5]; 0.2 nM in [6]; 18.5 nM in test [7]; 2.1 nM in test [8]; 0.7 nM in [9].

For the compound `O=C1NC2(CC2)COc2ncc(F)cc2[C@@H]2CCOCCN2c2ccn3ncc1c3n2` [WX009B], in test [4], the IC50 was above 1000 nM.

Regarding `C[C@H]1CNC(=O)c2cnn3ccc(nc23)N2CCOC[C@H]2c2cc(F)cnc2O1` [WX004A], the IC50 in test [4] stood at 441 nM.

Consider `O=C1NC2(CC2)CNc2ncc(F)cc2C2COCCN2c2ccn3ncc1c3n2` (single isomer, unassigned) [WX010B], for which, in [4], the IC50 is above 1000 nM.

For the compound `O=C1NC2(CC2)COc2ncc(F)cc2C2COCCN2c2ccn3ncc1c3n2` (single isomer, unassigned) [WX001A], in test [4], the IC50 was above 1000 nM.
